This assay deals with T1, human TGR5 (Homo sapiens, UniProt Q8TDU6).
T1 construct: expressed in transfected cells; host or cells: HEK293
T1 sequence (Q8TDU6 1-330): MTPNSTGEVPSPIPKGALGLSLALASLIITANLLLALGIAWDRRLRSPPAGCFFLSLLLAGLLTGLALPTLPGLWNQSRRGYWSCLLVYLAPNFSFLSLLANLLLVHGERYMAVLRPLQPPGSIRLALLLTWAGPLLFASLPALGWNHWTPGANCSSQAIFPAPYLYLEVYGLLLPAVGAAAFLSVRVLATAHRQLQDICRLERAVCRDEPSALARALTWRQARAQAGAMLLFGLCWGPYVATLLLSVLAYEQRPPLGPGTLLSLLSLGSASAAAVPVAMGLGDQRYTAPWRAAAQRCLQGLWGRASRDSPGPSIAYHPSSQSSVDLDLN
The assay can be described thus: Cell-based TGR5 assay (cAMP generation, HTRF). Conditions: HEK293 cells stably transfected with human TGR5; cAMP by HTRF; 30 minutes at 37° C.; read-out: pEC50 Human TGR5 (converted). Here is the method:
A primary cell-based assay utilized HEK293 cells stably transfected with a gene encoding human TGR5. Cells were treated with candidate TGR5 activators and assessed for increased intercellular levels of cAMP.
TGR5-mediated cAMP generation was measured using a homogeneous time resolved fluorescence (HTRF) detection method (Cisbio). Test compounds were dissolved in DMSO to a final concentration of 10 mM. Serial 3-fold dilutions of the stock solution were made in DMSO, and these solutions were diluted 100-fold into Hanks Balanced Salt Solution supplemented with 10 mM HEPES pH 7.4, 0.003% Tween 20 and 0.5 mM isobutyl methylxanthine. Five microliters of diluted test compounds were added to wells of a black 384 well plate.
Cells grown overnight at 37° C./5% CO2 were harvested and resuspended in Hanks Balanced Salt Solution containing 10 mM HEPES to a concentration of […]. Five microliters (2500 cells) were dispensed into each well of the 384 well plate containing compound dilutions and incubated at 37° C. for 30 minutes. Each compound was tested in duplicate at 12 concentrations ranging from 0.05 nM to 10 μM.
Following incubation with test compounds, cAMP was detected through the successive addition of 5 μL each of cAMP labeled with the modified allophyocyanin dye d2 (cAMP-d2) and cryptate-labeled anti-cAMP in lysis buffer, and reading HTRF per the manufacturer's instructions.
A standard curve was used to convert the raw HTRF data into [cAMP]. The concentration of cAMP was plotted against log [test compound] and the resulting curves were fit to a 3-parameter logistical equation using GraphPad Prism to determine pEC50 (the negative log of the EC50) and the magnitude of the response.
In general terms: TR-FRET usually uses a lanthanide donor and a delayed reading to cut background.
On to `O=C(NC[C@H](O)[C@@H](O)[C@H](O)[C@H](O)CO)C1CCN(S(=O)(=O)c2ccc(Cl)c(COC3(c4cnccc4-c4ccccc4OC4CC4)CC3)c2)CC1` [Compound I-437, 1-[4-chloro-3-({1-[4-(2-cyclopropoxyphenyl)pyridin-3-yl]cyclopropoxy}methyl)benzenesulfonyl]-N-[(2S,3R,4R,5R)-2,3,4,5,6-pentahydroxyhexyl]piperidine-4-carboxamide], for which the EC50 was under 0.1 µM.
With `CN(C[C@H](O)[C@@H](O)[C@H](O)[C@H](O)CO)C(=O)NCCCCc1cc(Cl)c(CNC2(c3cnccc3-c3ccccc3OC3COC3)CC2)cc1Cl` [Compound I-175, 1-[4-(2,5-dichloro-4-{[(1-{4-[2-(oxetan-3-yloxy)phenyl]pyridin-3-yl}cyclopropyl)amino]methyl}phenyl)butyl]-3-methyl-3-[(2S,3R,4R,5R)-2,3,4,5,6-pentahydroxyhexyl]urea], the EC50 is 0.126 to 1 µM.
Then `O=C(CN1CCC(NC(=O)NCCCCCSc2ccc(Cl)c(COC3(c4cnccc4-c4ccccc4OC4CC4)CC3)c2)CC1)NC[C@H](O)[C@@H](O)[C@H](O)[C@H](O)CO` [Compound I-631, 2-(4-{[(5-{[4-chloro-3-({1-[4-(2-cyclopropoxyphenyl)pyridin-3-yl]cyclopropoxy}methyl)phenyl]sulfanyl}pentyl)carbamoyl]amino}piperidin-1-yl)-N-[(2S,3R,4R,5R)-2,3,4,5,6-pentahydroxyhexyl]acetamide], with under 0.1 µM.
The same measure for `CN(CCO[C@@H]1O[C@H](CO)[C@@H](O)[C@H](O)[C@H]1O)C(=O)CCCCc1cc(Cl)c(COC2(c3cnccc3-c3ccccc3OC3CC3)CC2)cc1Cl` [Compound I-121, 5-(2,5-dichloro-4-((1-(4-(2-cyclopropoxyphenyl)pyridin-3-yl)cyclopropoxy)methyl)phenyl)-N-methyl-N-(2-(((2R,3R,4S,5S,6R)-3,4,5-trihydroxy-6-(hydroxymethyl)tetrahydro-2H-pyran-2-yl)oxy)ethyl)pentanamide]: under 0.1 µM; for `CN(CCCCNC(=O)N[C@@H](CO)[C@@H](O)[C@H](O)[C@H](O)CO)S(=O)(=O)c1ccc(C(F)(F)F)c(CNC2(c3cnccc3-c3ccccc3OC3CC3)CC2)c1` [Compound I-470, 1-(4-{N-methyl3-[({1-[4-(2-cyclopropoxyphenyl)pyridin-3-yl]cyclopropyl}amino)methyl]-4-(trifluoromethyl)benzenesulfonamido}butyl)-3-[(2S,3R,4S,5R)-1,3,4,5,6-pentahydroxyhexan-2-yl]urea]: 0.126 to 1 µM; for `COCC(=O)N(CCCCc1cc(Cl)c(COC2(c3cnccc3-c3ccccc3OC3CC3)CC2)cc1Cl)C[C@H](O)[C@@H](O)[C@H](O)[C@H](O)CO` [Compound I-72, N-{4-[2,5-dichloro-4-({1-[4-(2-cyclopropoxyphenyl)pyridin-3-yl]cyclopropoxy}methyl)phenyl]butyl}-2-methoxy-N-[(2S,3R,4R,5R)-2,3,4,5,6-pentahydroxyhexyl]acetamide]: under 0.1 µM.
Consider `O=C(NC[C@H](O)[C@@H](O)[C@H](O)[C@H](O)CO)N[C@@H](CCCCNS(=O)(=O)c1ccc(COC2(c3cnccc3-c3ccccc3OC3CC3)CC2)c(Cl)c1)C(=O)O` [Compound I-485, (S)-6-(3-chloro-4-((1-(4-(2-cyclopropoxyphenyl)pyridine-3-yl)cyclopropoxy)methyl)phenylsulfonamido)-2-(3-((2S,3R,4R,5R)-2,3,4,5,6-pentahydroxyhexyl)ureido) hexanoic acid], for which the EC50 was under 0.1 µM.
Consider `O=C(CCCCc1cc(Cl)c(COC2(c3cnccc3-c3ccccc3OC3CC3)CC2)cc1Cl)N(CC(O)CO)C[C@H](O)[C@@H](O)[C@H](O)[C@H](O)CO` (stereo partly drawn) [Compound I-122, 5-(2,5-dichloro-4-((1-(4-(2-cyclopropoxyphenyl)pyridin-3-yl)cyclopropoxy)methyl)phenyl)-N-(2,3-dihydoxypropyl)-N-((2S,3R,4R,5R)-2,3,4,5,6-pentahydroxyhexyl) pentanamide], for which the EC50 was under 0.1 µM.
The same measure for `O=C([C@H](O)[C@@H](O)[C@H](O)[C@H](O)CO)N(CCCCCCO)CCCCc1cc(Cl)c(COC2(c3cnccc3-c3ccccc3OC3CC3)CC2)cc1Cl` [Compound I-83, (2R,3S,4R,5R)-N-{4-[2,5-dichloro-4-({1-[4-(2-cyclopropoxyphenyl)pyridin-3-yl]cyclopropoxy}methyl)phenyl]butyl}-2,3,4,5,6-pentahydroxy-N-(6-hydroxyhexyl)hexanamide]: under 0.1 µM; for `Cc1cnc(SCCCC(=O)N(C)C[C@H](O)[C@@H](O)[C@H](O)[C@H](O)CO)nc1CNC1(c2cnccc2-c2ccccc2OC2CC2)CC1` [Compound I-656, 4-({4-[({1-[4-(2-cyclopropoxyphenyl)pyridin-3-yl]cyclopropyl}amino)methyl]-5-methylpyrimidin-2-yl}sulfanyl)-N-methyl-N-[(2S,3R,4R,5R)-2,3,4,5,6-pentahydroxyhexyl]butanamide]: 12.6 to 50.1 µM.
Then `Cc1ccc(C(C)CCCN(C)C(=O)[C@@H](O)[C@@H](O)[C@H](O)[C@@H](O)CO)cc1CNC1(c2cnccc2-c2ccccc2OC2CC2)CC1` (stereo partly drawn) [Compound I-301, (2S,3S,4R,5S)-N-(4-{3-[({1-[4-(2-cyclopropoxyphenyl)pyridin-3-yl]cyclopropyl}amino)methyl]-4-methylphenyl}pentyl)-2,3,4,5,6-pentahydroxy-N-methylhexanamide], with under 0.1 µM; and `O=C(NCCCCC[S+]([O-])c1ccc(Cl)c(COC2(c3cnccc3-c3ccccc3OC3CC3)CC2)c1)N[C@@H](CO)[C@@H](O)[C@H](O)[C@H](O)CO` (stereo partly drawn) [Compound I-642, 1-{5-[4-chloro-3-({1-[4-(2-cyclopropoxyphenyl)pyridin-3-yl]cyclopropoxy}methyl)benzenesulfinyl]pentyl}-3-[(2S,3R,4S,5R)-1,3,4,5,6-pentahydroxyhexan-2-yl]urea], with under 0.1 µM; and `CC(CCCc1cc(Cl)c(COC2(c3cnccc3-c3ccccc3OC3CC3)CC2)cc1Cl)C(=O)N(C)C[C@H](O)[C@@H](O)[C@H](O)[C@H](O)CO` (stereo partly drawn) [Compound I-140, 5-[2,5-dichloro-4-({1-[4-(2-cyclopropoxyphenyl)pyridin-3-yl]cyclopropoxy}methyl)phenyl]-N,2-dimethyl-N-[(2S,3R,4R,5R)-2,3,4,5,6-pentahydroxyhexyl]pentanamide], with under 0.1 µM.
As to `Cc1cc(COC2(c3cnccc3-c3ccccc3OC3CC3)CC2)c(C)cc1CCCCC(=O)N(C)C[C@H](O)[C@@H](O)[C@H](O)[C@H](O)CO` [Compound I-230, 5-[4-({1-[4-(2-cyclopropoxyphenyl)pyridin-3-yl]cyclopropoxy}methyl)-2,5-dimethylphenyl]-N-methyl-N-[(2S,3R,4R,5R)-2,3,4,5,6-pentahydroxyhexyl]pentanamide], the EC50 was under 0.1 µM.
Take `CC(CCSc1ccc(Cl)c(COC2(c3cnccc3-c3ccccc3OC3CC3)CC2)c1)C(=O)N(C)C[C@H](O)[C@@H](O)[C@H](O)[C@H](O)CO` (stereo partly drawn) [Compound I-689, 4-{[4-chloro-3-({1-[4-(2-cyclopropoxyphenyl)pyridin-3-yl]cyclopropoxy}methyl)phenyl]sulfanyl}-N,2-dimethyl-N-[(2S,3R,4R,5R)-2,3,4,5,6-pentahydroxyhexyl]butanamide]: the EC50 was under 0.1 µM.
The same measure for `CS(=O)(=O)CC(=O)N(CCCCc1cc(Cl)c(COC2(c3cnccc3-c3ccccc3OC3CC3)CC2)cc1Cl)C[C@H](O)[C@@H](O)[C@H](O)[C@H](O)CO` [Compound I-202, N-{4-[2,5-dichloro-4-({1-[4-(2-cyclopropoxyphenyl)pyridin-3-yl]cyclopropoxy}methyl)phenyl]butyl}-2-methanesulfonyl-N-[(2S,3R,4R,5R)-2,3,4,5,6-pentahydroxyhexyl]acetamide]: under 0.1 µM; for `CC(=O)N(CCCCSc1ccc(Cl)c(CNC2(c3cnccc3-c3ccccc3OC3CC3)CC2)c1)C[C@H](O)[C@@H](O)[C@H](O)[C@H](O)CO` [Compound I-503, N-[4-({4-chloro-3-[({1-[4-(2-cyclopropoxyphenyl)pyridin-3-yl]cyclopropyl}amino)methyl]phenyl}sulfanyl)butyl]-N-[(2S,3R,4R,5R)-2,3,4,5,6-pentahydroxyhexyl]acetamide]: under 0.1 µM.
The same measure for `CC(CCCC(=O)N(C[C@@H](O)[C@H](O)[C@@H](O)[C@@H](O)CO)CC(C)(C)CO)c1ccc(Cl)c(CNC2(c3cnccc3-c3ccccc3OC3CC3)CC2)c1` (stereo partly drawn) [Compound I-341, 5-{4-chloro-3-[({1-[4-(2-cyclopropoxyphenyl)pyridin-3-yl]cyclopropyl}amino)methyl]phenyl}-N-(3-hydroxy-2,2-dimethylpropyl)-N-[(2R,3S,4S,5S)-2,3,4,5,6-pentahydroxyhexyl]hexanamide]: under 0.1 µM.

Values taken from US12084472B2 (Ardelyx, Inc., priority 2015, dated 2024).
